Assay results from article PMC12126525, “Mechanism of ATP hydrolysis in the Hsp70 BiP nucleotide-binding domain” (Nature Communications, 2025).
Read-outs that look alike come from different tables or passages of the source.

Key:
BiP NBD [1] = target: T1, BiP NBD (Homo sapiens, UniProt P11021); test: Global kinetic fit (MCMC) of four NMR data sets (E1+E2, E1 only, E2 only, no recycling): functional cycle kinetic parameters; type: biochemical; design: His6 (N, cleaved yes); made in house; host or cells: E. coli BL21-(DE3)-Lemo, pET28a vector
T1 sequence (P11021 19-406): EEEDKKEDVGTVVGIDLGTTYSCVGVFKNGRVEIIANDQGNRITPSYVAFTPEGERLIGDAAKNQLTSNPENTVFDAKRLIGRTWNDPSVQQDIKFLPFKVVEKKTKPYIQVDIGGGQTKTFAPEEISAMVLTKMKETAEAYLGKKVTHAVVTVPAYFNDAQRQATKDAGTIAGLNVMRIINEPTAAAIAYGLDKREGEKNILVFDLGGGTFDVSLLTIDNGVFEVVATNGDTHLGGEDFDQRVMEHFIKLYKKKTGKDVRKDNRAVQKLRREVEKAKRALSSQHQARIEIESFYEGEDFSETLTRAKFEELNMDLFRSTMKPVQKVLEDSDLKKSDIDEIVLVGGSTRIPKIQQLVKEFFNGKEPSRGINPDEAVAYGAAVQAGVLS
Text: It comprises 5 different states that are connected by […] reaction equations of first and second order. We consider ATP hydrolysis an irreversible reaction without backreaction. The other pathways are reversible dissociation/association reactions, arbitrarily labeled 1–5. The microscopic equations (elementary reactions) for these 11 reactions are given by:1 NBD^ATPkcat→NBD^ADP⋅Pi 2 NBD^ATPkoff1⇌kon1NBD^apo+ATP 3 NBD^ADPkoff2⇌kon2NBD^apo+ADP 4 NBD^Pikoff3⇌kon3NBD^apo+Pi 5 NBD^ADP⋅Pikoff4⇌kon4NBD^ADP+Pi 6 NBD^ADP⋅Pikoff5⇌kon5NBD^Pi+ADP With the forward and backward kinetic rate constants connected by thermodynamic equilibrium dissociation constants given by7 koffi/koni=KDifori=1,…,5 For each of the 5 states, a differential equation describing the conservation of mass can be derived:8 d/dtNBD^apo=+koff1NBD^ATP+koff2NBD^ADP+koff3NBD^Pi−kon1NBD^apoATP−kon2NBD^apoADP−kon3NBD^apoPi 9 d/dt[NBD^ATP]=+kon1NBD^apoATP−koff1NBD^ATP−kcatNBD^ATP 10 d/dtNBD^ADP⋅Pi=+kcatNBD^ATP+kon4NBD^ADPPi+kon5NBD^PiADP−koff4NBD^ADP⋅Pi−koff5NBD^ADP⋅Pi 11 d/dtNBD^ADP=+koff4NBD^ADP⋅Pi+kon2NBD^apoADP−koff2NBD^ADP−kon4NBD^ADPPi 12 d/dtNBD^Pi=+koff5NBD^ADP⋅Pi+kon3NBD^apoPi−koff3NBD^Pi−kon5NBD^PiADP Furthermore, we have the total amount13 NBD^apo+NBD^ATP+NBD^ADP+NBD^ADP⋅Pi+NBD^Pi=NBD0 These equations can be used for numerical fitting of steady-state and non-steady-state experimental data.
The experimental data of the BiP NBD in-cyclo experiments were fitted using standard reaction kinetics. Free variables were the kon and koff rates for the five reversible reaction and the catalytic rate constant (kcat) for the irreversible ATP hydrolysis step (See theory section). The initial values for kcat , koff2 , koff4 and koff5 were set to the value determined experimentally with in-cyclo experiment. The initial value for koff3 was taken from the EXSY experiment and the initial range for koff1 and KD1 were taken from the literature. […] The prior distributions were defined based on the average state occupancy resolved from the in-cyclo experiment: tNBD·ADP, tNBD, tNBD·ADP·Pi and tNBD·Pi. Numerical integration of the corresponding differential equations for the reaction scheme (described in Fig. 2a) was performed using a custom Python module (Kinetic).
To fully determine all kinetic parameters, the data fitting procedure was conducted as a global fit of four independent experimental datasets: (i) the in-cyclo experiment with ATP regeneration and phosphate removal, (ii) ATP regeneration only, (iii) single batch experiments starting from pure ATP with the phosphate removal system, and (iv) single batch experiments starting from pure ATP.
Fitting of the functional cycle kinetic parameters. a-d, Global fit of the experimental data presented in the manuscript E1 +E2 (a), E1 (b), E2 (c), no recycling system (d). Data points are shown as circles NBD·ADP (blue), NBD·ADP·PI (dark blue) and NBD·ATP (red) (left) and pyruvate (grey), glucose-1-P (lavender), ATP (red) and ADP (blue) (right). The fit of the data is shown as lines in the same color as the data points. Data points and standard deviation for three independent experiments. e, Numerical stability of the global fitting of the experimental data.

BiP NBD [2] = target: T1, BiP NBD
Procedure: We next wanted to compare our determined kinetic rates of ADP dissociation, koff2 and koff5 , with a standard assay in the Hsp70 field that measures ADP lifetimes by ADP displacement.
The dissociation rate constants (koff) were determined by fitting the data to a one phase exponential function using a python script. […]
The red line corresponds to the mono-exponential fit of the data. […]
from 0.001 to 10 mM, in the absence of Pi (pink circles) and with 0.5 mM Pi (blue circles). Data points represent the mean for three independent experiments and the error bar represents the standard deviation. The half maximal inhibitory concentration (IC50) of Ca was calculated from three

BiP NBD [3] = target: T1, BiP NBD; test: NMR experiment with MABA-ATP (no E1, no E2) and kinetic fit of the MABA-ATP/MABA-ADP functional cycle; type: biochemical; design: His6 (N, cleaved yes); made in house; host or cells: E. coli BL21-(DE3)-Lemo, pET28a vector; conditions: Supplementary Fig 13b
Procedure: […] After the equilibration time 2D [^13C,^1H]-HMQC spectra were recorded in interleaved mode with 1D ^1H NMR spectra. […] The same setup was used for the alternative experiments by including or excluding E1 and/or E2. When E1 was not included, the ratio of the ATP/ADP NMR signals was used to monitor their relative concentrations.
(1 picture or pasted object on this page, not shown here)

C=C(OP(=O)(O)O)C(=O)O [PEP]
species (BiP NBD [1]; Supplementary Fig 10a, time 5 min): 23927 µM | species (BiP NBD [1]; Supplementary Fig 10a, time 11 min): 22915 µM | species (BiP NBD [1]; Supplementary Fig 10a, time 17 min): 22075 µM | species (BiP NBD [1]; Supplementary Fig 10a, time 23 min): 20991 µM | species (BiP NBD [1]; Supplementary Fig 10a, time 29 min): 20195 µM | species (BiP NBD [1]; Supplementary Fig 10a, time 35 min): 19469 µM | species (BiP NBD [1]; Supplementary Fig 10a, time 41 min): 18568 µM | species (BiP NBD [1]; Supplementary Fig 10a, time 47 min): 17755 µM | species (BiP NBD [1]; Supplementary Fig 10a, time 53 min): 16928 µM | species (BiP NBD [1]; Supplementary Fig 10a, time 59 min): 16013 µM | species (BiP NBD [1]; Supplementary Fig 10a, time 65 min): 15275 µM | species (BiP NBD [1]; Supplementary Fig 10a, time 71 min): 14277 µM | species (BiP NBD [1]; Supplementary Fig 10b, time 10 min): 9179 µM | species (BiP NBD [1]; Supplementary Fig 10b, time 16 min): 8398 µM | species (BiP NBD [1]; Supplementary Fig 10b, time 22 min): 7745 µM | species (BiP NBD [1]; Supplementary Fig 10b, time 28 min): 7180 µM | species (BiP NBD [1]; Supplementary Fig 10b, time 34 min): 6616 µM | species (BiP NBD [1]; Supplementary Fig 10b, time 40 min): 6265 µM | species (BiP NBD [1]; Supplementary Fig 10b, time 46 min): 5793 µM | species (BiP NBD [1]; Supplementary Fig 10b, time 52 min): 5256 µM | species (BiP NBD [1]; Supplementary Fig 10b, time 58 min): 4838 µM | species (BiP NBD [1]; Supplementary Fig 10b, time 64 min): 4465 µM | species (BiP NBD [1]; Supplementary Fig 10b, time 70 min): 3973 µM

[Ca+2] [Ca2+]
Supplementary Fig 16a time trace signal (BiP NBD [2]; [Ca2+] 0.1 μM, time 148.582 sec): 0.000 | Supplementary Fig 16a time trace signal (BiP NBD [2]; [Ca2+] 0.5 μM, time 148.582 sec): 0.000 | Supplementary Fig 16a time trace signal (BiP NBD [2]; [Ca2+] 1 μM, time 148.582 sec): 0.000 | Supplementary Fig 16a time trace signal (BiP NBD [2]; [Ca2+] 5 μM, time 148.582 sec): 0.000 | Supplementary Fig 16a time trace signal (BiP NBD [2]; [Ca2+] 10 μM, time 148.582 sec): 0.000 | Supplementary Fig 16a time trace signal (BiP NBD [2]; [Ca2+] 25 μM, time 148.582 sec): 0.000 | Supplementary Fig 16a time trace signal (BiP NBD [2]; [Ca2+] 50 μM, time 148.582 sec): 0.000 | Supplementary Fig 16a time trace signal (BiP NBD [2]; [Ca2+] 75 μM, time 148.582 sec): 0.002 | Supplementary Fig 16a time trace signal (BiP NBD [2]; [Ca2+] 100 μM, time 148.582 sec): 0.000 | Supplementary Fig 16a time trace signal (BiP NBD [2]; [Ca2+] 125 μM, time 148.582 sec): 0.000 | Supplementary Fig 16a time trace signal (BiP NBD [2]; [Ca2+] 150 μM, time 148.582 sec): 0.005 | Supplementary Fig 16a time trace signal (BiP NBD [2]; [Ca2+] 175 μM, time 148.582 sec): 0.003 | Supplementary Fig 16a time trace signal (BiP NBD [2]; [Ca2+] 200 μM, time 148.582 sec): 0.000 | Supplementary Fig 16a time trace signal (BiP NBD [2]; [Ca2+] 300 μM, time 148.582 sec): 0.003 | Supplementary Fig 16a time trace signal (BiP NBD [2]; [Ca2+] 400 μM, time 148.582 sec): 0.002 | Supplementary Fig 16a time trace signal (BiP NBD [2]; [Ca2+] 500 μM, time 148.582 sec): 0.002 | Supplementary Fig 16a time trace signal (BiP NBD [2]; [Ca2+] 1000 μM, time 148.582 sec): 0.000 | Supplementary Fig 16a time trace signal (BiP NBD [2]; [Ca2+] 5000 μM, time 148.582 sec): 0.001 | Supplementary Fig 16a time trace signal (BiP NBD [2]; [Pi] 0.5 mM, [Ca2+] 0.1 μM, time 148.846 sec): 0.000 | Supplementary Fig 16a time trace signal (BiP NBD [2]; [Pi] 0.5 mM, [Ca2+] 0.5 μM, time 148.846 sec): 0.004 | Supplementary Fig 16a time trace signal (BiP NBD [2]; [Pi] 0.5 mM, [Ca2+] 1 μM, time 148.846 sec): 0.005 | Supplementary Fig 16a time trace signal (BiP NBD [2]; [Pi] 0.5 mM, [Ca2+] 5 μM, time 148.846 sec): 0.000 | Supplementary Fig 16a time trace signal (BiP NBD [2]; [Pi] 0.5 mM, [Ca2+] 10 μM, time 148.846 sec): 0.000 | Supplementary Fig 16a time trace signal (BiP NBD [2]; [Pi] 0.5 mM, [Ca2+] 50 μM, time 148.846 sec): 0.004 | Supplementary Fig 16a time trace signal (BiP NBD [2]; [Pi] 0.5 mM, [Ca2+] 100 μM, time 148.846 sec): 0.003 | Supplementary Fig 16a time trace signal (BiP NBD [2]; [Pi] 0.5 mM, [Ca2+] 500 μM, time 148.846 sec): 0.007 | Supplementary Fig 16a time trace signal (BiP NBD [2]; [Pi] 0.5 mM, [Ca2+] 1000 μM, time 148.846 sec): 0.010 | Supplementary Fig 16a time trace signal (BiP NBD [2]; [Pi] 0.5 mM, [Ca2+] 5000 μM, time 148.846 sec): 0.000

CNc1ccccc1C(=O)NCCCCNc1nc2c(N)ncnc2n1[C@@H]1O[C@H](COP(=O)(O)OP(=O)(O)OP(=O)(O)O)[C@@H](O)[C@H]1O [MABAATP]
species (BiP NBD [3]; time 4 min): 649 µM | species (BiP NBD [3]; time 10 min): 492.3 µM | species (BiP NBD [3]; time 16 min): 374.2 µM | species (BiP NBD [3]; time 22 min): 287.7 µM | species (BiP NBD [3]; time 28 min): 199.6 µM | species (BiP NBD [3]; time 34 min): 160.1 µM | species (BiP NBD [3]; time 40 min): 111.4 µM | species (BiP NBD [3]; time 46 min): 92.6 µM | species (BiP NBD [3]; time 52 min): 70.6 µM | species (BiP NBD [3]; time 58 min): 65.7 µM | species (BiP NBD [3]; time 64 min): 67.7 µM
